The results in this text go back to patent US4008323A, “Method of reducing cholesterol using certain aromatic keto acids” (Pierre Fabre S.A., priority 1974, dated 1977).

SMILES strings stand for the structures. Like-named read-outs stand apart in the source and are kept apart here.

For orientation: solubility means the concentration that dissolves in the medium under given conditions. A word on the LD50: it is the dose expected to kill half of the subjects tested. Low values mean greater toxicity, high ones lower toxicity.

A short description of one data set: Solubility properties. It counts as physicochemical. The settings on record: for Solubility in ethyl alcohol: ethyl alcohol / ethanol / alcohol; for Solubility in water: in words; for Solubility in alcohol of 95° GL: alcohol / ethanol of 95° GL.
The test system of data set [1] is writhings induced by acetic acid. Kind of data set: Writhing test, acetic acid (analgetic). It counts as in vivo, male mouse. The settings on record: 200 mg/kg by mouth, t + 60 to t + 70 min. As to the method:
The administration of the compounds is effected by mouth at the time t. […] The determination of the writhings is effected from t + 60 min. to t + 70 min. The vehicle used for the administration of the products is a 5% solution of Tween 80 in 0.9% NaCl which will serve as control.
(Writhing tests count abdominal constrictions after an irritant is injected.)

A further data set has as its system carrageenin edema. In words: Carrageenin edema test in rats (antiinflammatory). The class given is in vivo. Conditions: for change in vivo at 300 mg/kg / change in vivo at 200 mg/kg / change in vivo at 75 mg/kg: Rattus norvegicus; for change in vivo at 300 mg/kg: 300 mg/kg oral; for change in vivo at 200 mg/kg: 200 mg/kg oral; for % var. / action (variation of paw volume increase vs controls) / change in vivo at 75 mg/kg: 75 mg/kg oral. How it is done: The antiinflammatory properties were shown by the carrageenin edema test in rats, the products having been administered orally 1 hour before the intrapodal injection of 0.05 ml of a 2% suspension of carrageenin; the volume of the rat's paw was measured by plethysmoscopy 3, 4 and 6 hours afterwards.
The experiment concerned for each lot […]; one lot of animals receiving only the vehicle (2 ml/100 g of Tween + water) which served for the administration of the products, constituted the control lot. The following table sets forth the results obtained: […]
(In general: Carrageenan injected into the paw causes an acute inflammation.)

Data set [2] is described as follows: Acute toxicity in mice, oral LD50 (method of Miller & Tainter). The settings on record: mouse, in vivo, mortality determined 48 hours after administration. How it is done:
The chemical compounds previously described were submitted to toxicity tests. It was determined in mice by oral administration and was calculated in accordance with the method of MILLER & TAINTER. It is generally low and greater than 1000 mg/kg.

The mark [3] stands for this setting: sodium salt, water, read-out: Solubility in form of sodium salt.
Where [4] appears, read: + 3 hrs, read-out: % increase in volume of the paw, mean (m).
[5] abbreviates: + 4 hrs, read-out: % increase in volume of the paw, mean (m).
The mark [6] stands for this setting: + 6 hrs, read-out: % increase in volume of the paw, mean (m).
The mark [7] stands for this setting: + 6 hrs, read-out: Action (variation of paw volume increase vs controls).
Setting [8] is: read-out: % mean variation of the volume of the paw at 3, 4 and 6 hrs.
Setting [9] is: + 3 hrs, read-out: Action (variation of paw volume increase vs controls).
Setting [10] is: + 4 hrs, read-out: Action (variation of paw volume increase vs controls).

`C=C(CC(=O)c1ccc(Oc2ccccc2)cc1)C(=O)O` [Example 4, 2-methylene 4-oxo 4-(paraphenoxyphenyl) butyric acid]: the “Solubility in NN dimethyl formamide” value in “Solubility properties” (NN dimethyl formamide) amounted to 50%. Besides, in the data set “Solubility properties”, the Solubility in acetone was 10%, the “Solubility in ethyl alcohol” value stood at 3% and the “Solubility in propylene glycol” value amounted to 1%. In “Solubility properties” (chloroform), the Solubility in chloroform worked out at 5%. In “Solubility properties” (setting [3]), the solubility worked out at 100000 µg/mL. Moreover, in the data set “Solubility properties” (water), the Solubility in water result is given as “insoluble”.
Consider `C=C(CC(=O)c1ccc(-c2ccc(Br)cc2)cc1)C(=O)O` [Example 5, 2-methylene 4-oxo 4-(phenyl-4'-parabromophenyl) butyric acid], for which, in the data set “Solubility properties”, the “Solubility in N-methyl pyrrolidone” value was 25% and the “Solubility in ethyl alcohol” value worked out at 1%. Besides, the Solubility in water result in the data set “Solubility properties” (water) was “insoluble”.
Consider `C=C(CC(=O)c1ccccc1)C(=O)O` [F 1350, 2-methylene 4-oxo 4-phenyl butyric acid], for which, in data set [1], the “% Decrease (of writhings)” value is given as 42,3%. In data set [1], the “Mean No. of Writhings” value is reported as 25,7. In addition, the Solubility in acetone in the data set “Solubility properties” was 6%. Further, the “Solubility in NN-dimethyl acetamide” value in “Solubility properties” is on record as 10%. Moreover, in the data set “Solubility properties” (dimethyl sulfoxide), the “Solubility in dimethyl sulfoxide” value is 25%. Also, in the data set “Solubility properties”, the “Solubility in ethyl alcohol” value is recorded as 3%. Moreover, the solubility in the data set “Solubility properties” (setting [3]) came out at 10000 µg/mL. Also, the Solubility in water entry in “Solubility properties” (water) is on record as “insoluble”. The change in vivo at 300 mg/kg with carrageenin edema (setting [4]) was 34.3%; in the data set on carrageenin edema (setting [5]), 39.7%; with carrageenin edema (setting [6]), 46.1%; in the data set on carrageenin edema (setting [7]), 0%; in the data set on carrageenin edema (setting [8]) it was -17%.
In the case of `CC(=CC(=O)c1ccccc1)C(=O)O` [F 1351, 2-methyl 4-oxo 4-phenyl 2-butenoic acid], the “% Decrease (of writhings)” value in data set [1] is 48,2%. In addition, the “Mean No. of Writhings” value in data set [1] is recorded as 28,0. In “Solubility properties”, the “Solubility in ethyl alcohol” value is given as 5%. Further, the “Solubility in propylene glycol” value in “Solubility properties” came out at 3%. The solubility in the data set “Solubility properties” (setting [3]) worked out at 10000 µg/mL. For the same compound, the change in vivo at 300 mg/kg in the data set with carrageenin edema (setting [4]) was 29.7%; in the data set with carrageenin edema (setting [9]), -41%; in the data set on carrageenin edema (setting [5]), 33.8%; in the data set on carrageenin edema (setting [10]) it was -32%; in the data set with carrageenin edema (setting [6]) it was 40.6%; in the data set with carrageenin edema (setting [7]), -12%.
As for `C=C(CC(=O)c1ccc(Cl)cc1)C(=O)O` [F 1352, 2-methylene 4-oxo 4-(parachlorophenyl) butyric acid], in data set [1], the “% Decrease (of writhings)” value is recorded as 40,3%. The “Mean No. of Writhings” value in data set [1] is listed as 26,6. Moreover, the “Solubility in N-methyl pyrrolidone” value in “Solubility properties” is recorded as 25%. In addition, the “Solubility in ethyl alcohol” value in the data set “Solubility properties” was determined as 3%. The solubility in the data set “Solubility properties” (setting [3]) was 10000 µg/mL. Further, in “Solubility properties” (water), the Solubility in water result is “insoluble”. In addition, the change in vivo at 300 mg/kg in the data set on carrageenin edema (setting [4]) was 35.8%; in the data set with carrageenin edema (setting [9]) it was -28%; in the data set on carrageenin edema (setting [5]), 37.9%; with carrageenin edema (setting [10]) it was -24%; with carrageenin edema (setting [6]), 37.3%; with carrageenin edema (setting [7]), -19%. Further, the change in vivo at 300 mg/kg in the data set on carrageenin edema (setting [8]) was -23.6%.
On to `C=C(CC(=O)c1ccc(C2CCCCC2)cc1)C(=O)O` [F 1353, 2-methylene 4-oxo 4-(paracyclohexylphenyl) butyric acid], for which, in the data set “Solubility properties”, the “Solubility in NN-dimethyl acetamide” value stood at 20%, the “Solubility in ethyl alcohol” value was determined as 3% and the “Solubility in propylene glycol” value was 1%. Also, the solubility in the data set “Solubility properties” (water with sodium bicarbonate, water + sodium bicarbonate, read-out: Solubility in water by addition of sodium bicarbonate) was 10000 µg/mL. Moreover, the Solubility in water result in “Solubility properties” (water) is “insoluble”.
With `C=C(CC(=O)c1ccc(-c2ccc(Br)cc2)cc1)C(=O)O` [F 1378], the change in vivo at 300 mg/kg was 45.4% in the data set on carrageenin edema (setting [4]); -26% with carrageenin edema (setting [9]); 47.9% in the data set on carrageenin edema (setting [5]); -21% in the data set with carrageenin edema (setting [10]); 52.4% in the data set with carrageenin edema (setting [6]); -8% in the data set on carrageenin edema (setting [7]). For the same compound, the change in vivo at 300 mg/kg with carrageenin edema (setting [8]) is -18.3%.
As for `C=C(CC(=O)c1ccc(Oc2ccccc2)cc1)C(=O)O` [F 1380], the change in vivo at 200 mg/kg is 50.3% with carrageenin edema (setting [4]); -18% in the data set on carrageenin edema (setting [9]); 52.8% in the data set on carrageenin edema (setting [5]); -12% in the data set with carrageenin edema (setting [10]); 55.6% in the data set with carrageenin edema (setting [6]); -3% in the data set with carrageenin edema (setting [7]). The change in vivo at 200 mg/kg in the data set on carrageenin edema (setting [8]) is -11%.
Regarding `C=C(CC(=O)c1ccc(-c2ccccc2Cl)cc1)C(=O)OC` [F 1440, 2-methylene 4-oxo 4-(4'-o-chlorophenylphenyl) methyl butyrate], the “Solubility in N-methyl pyrrolidone” value in “Solubility properties” came to 60%. In addition, the “Solubility in NN-dimethyl acetamide” value in “Solubility properties” is 60%. Further, the Solubility in water result in “Solubility properties” (water) is listed as “insoluble”. Moreover, the “% var. / action (variation of paw volume increase vs controls)” value was -22% in the data set with carrageenin edema (3 hrs), -15% in the data set with carrageenin edema (4 hrs) and -9% in the data set with carrageenin edema (6 hrs). Also, the change in vivo at 75 mg/kg was 47% with carrageenin edema (3 hrs, read-out: % increase in volume of the paw, mean (m)); 50.5% with carrageenin edema (4 hrs, read-out: % increase in volume of the paw, mean (m)); 51% in the data set with carrageenin edema (6 hrs, read-out: % increase in volume of the paw, mean (m)); -15% with carrageenin edema (setting [8]). Besides, the LD50 at 48 h in data set [2] is > 1000 mg/kg.
With `CC(=CC(=O)c1ccc(-c2ccccc2Cl)cc1)C(=O)Nc1cccc(C(F)(F)F)c1` [F 1441], in “Solubility properties”, the “Solubility in ethyl alcohol” value was found to be 6%. The Solubility in water entry in “Solubility properties” (water) is “insoluble”.
Take `CC(=CC(=O)c1ccccc1)C(=O)N1CCOCC1` [F 1443, N-(4-phenyl 4-oxo 2-methyl 2-butenoyl)morpholine]: in “Solubility properties”, the “Solubility in N-methyl pyrrolidone” value stood at 5%, the “Solubility in alcohol of 95° GL” value is 1.5% and the “Solubility in NN-dimethyl acetamide” value came to 5%. The Solubility in water result in “Solubility properties” (water) is given as “insoluble”.
For the compound `CC(=CC(=O)c1ccc(-c2ccccc2)cc1)C(=O)O` [F 1448, 2-methyl 4-oxo 4-(4'-phenylphenyl) 2-butenoic acid], in “Solubility properties”, the “Solubility in N-methyl pyrrolidone” value was 20%, the “Solubility in NN-dimethyl acetamide” value is 25% and the “Solubility in ethyl alcohol” value was 1%. Besides, the Solubility in water result in the data set “Solubility properties” (water) is reported as “insoluble”.
Taken in the same sequence, the figures for `C=C(CC(=O)c1cccc2ccccc12)C(=O)O` [F 1494, 2-methylene 4-oxo 4-naphthalene butanoic acid] were 50%, 50%, 3% and “insoluble”.
For the compound `C=C(CC(=O)c1ccc2c(c1)CCCC2)C(=O)O` [F 1495, 2-methylene 4-oxo 4-(1'-2'-3'-4'-tetrahydronaphthalene) butyric acid], in “Solubility properties”, the “Solubility in N-methyl pyrrolidone” value came out at 50%, the “Solubility in alcohol of 95° GL” value stood at 8% and the “Solubility in NN-dimethyl acetamide” value is given as 50%. For the same compound, the Solubility in water result in the data set “Solubility properties” (water) was “insoluble”.
Take `C=C(CC(=O)c1ccc(-c2ccccc2Cl)cc1)C(=O)O` [F 1496, 2-methylene 4-oxo 4-(4'-orthochlorophenylphenyl) arginine butyrate]: in “Solubility properties” (water), the Solubility in water entry was “soluble”.
As to `C=C(CC(=O)c1ccc(OC)c(-c2ccccc2)c1)C(=O)O` [F 1497, 2-methylene 4-oxo 4-(3' phenyl, 4'-methoxyphenyl) butyric acid], in “Solubility properties”, the “Solubility in alcohol of 95° GL” value is listed as 6% and the “Solubility in NN-dimethyl acetamide” value is recorded as 30%. The Solubility in water entry in “Solubility properties” (water) is given as “insoluble”.
With `CC(=O)Oc1ccccc1C(=O)O` [acetylsalicyclic acid, reference compound], in data set [1], the “% Decrease (of writhings)” value is 36,6% and the “Mean No. of Writhings” value is 24,7.
